Measurements taken from patent US10450326B2, “Thiazolopyrimidinone compounds and preparation methods and use thereof” (PEKING UNIVERSITY, priority 2015, dated 2019).
“Also recorded” adds a separate entry of the source. Each block holds one compound with its values, some of them ahead of it.

How the values were obtained:
α7 nAChR [1] = molecular target: T1, α7 nAChR (Rattus norvegicus, UniProt Q05941); assay: Radioisotope ligand binding assay, displacement of [3H]-Methyllycaconitine bound to rat brain cell membrane
T1 construct: from tissue; host or cells: rat brain (hippocampus) cell membranes
T1 sequence (Q05941 23-502): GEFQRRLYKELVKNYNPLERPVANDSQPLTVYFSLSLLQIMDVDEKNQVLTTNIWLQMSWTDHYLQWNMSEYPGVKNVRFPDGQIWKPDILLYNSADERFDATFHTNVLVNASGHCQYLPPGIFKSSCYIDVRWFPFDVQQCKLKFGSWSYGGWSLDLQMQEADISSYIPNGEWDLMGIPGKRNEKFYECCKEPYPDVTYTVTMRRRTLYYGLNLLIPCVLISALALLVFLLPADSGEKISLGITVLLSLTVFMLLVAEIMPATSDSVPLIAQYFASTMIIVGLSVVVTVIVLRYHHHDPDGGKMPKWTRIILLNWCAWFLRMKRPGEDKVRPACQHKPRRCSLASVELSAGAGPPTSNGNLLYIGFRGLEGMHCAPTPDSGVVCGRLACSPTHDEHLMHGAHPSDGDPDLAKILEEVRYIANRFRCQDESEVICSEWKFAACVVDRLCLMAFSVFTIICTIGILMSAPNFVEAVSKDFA

α4β2 receptors = molecular target: T2, α4β2 receptors (Homo sapiens, UniProt P17787+P43681); assay: Two-electrode voltage clamp in Xenopus oocytes, α4β2 receptor; format: cell-based; conditions: 10 μM LD486, pre-stimulated 60 seconds, 10 μM ACh
T2 construct: expressed in transfected cells; host or cells: Xenopus oocytes
T2 sequence (P43681 29-627 limits assumed): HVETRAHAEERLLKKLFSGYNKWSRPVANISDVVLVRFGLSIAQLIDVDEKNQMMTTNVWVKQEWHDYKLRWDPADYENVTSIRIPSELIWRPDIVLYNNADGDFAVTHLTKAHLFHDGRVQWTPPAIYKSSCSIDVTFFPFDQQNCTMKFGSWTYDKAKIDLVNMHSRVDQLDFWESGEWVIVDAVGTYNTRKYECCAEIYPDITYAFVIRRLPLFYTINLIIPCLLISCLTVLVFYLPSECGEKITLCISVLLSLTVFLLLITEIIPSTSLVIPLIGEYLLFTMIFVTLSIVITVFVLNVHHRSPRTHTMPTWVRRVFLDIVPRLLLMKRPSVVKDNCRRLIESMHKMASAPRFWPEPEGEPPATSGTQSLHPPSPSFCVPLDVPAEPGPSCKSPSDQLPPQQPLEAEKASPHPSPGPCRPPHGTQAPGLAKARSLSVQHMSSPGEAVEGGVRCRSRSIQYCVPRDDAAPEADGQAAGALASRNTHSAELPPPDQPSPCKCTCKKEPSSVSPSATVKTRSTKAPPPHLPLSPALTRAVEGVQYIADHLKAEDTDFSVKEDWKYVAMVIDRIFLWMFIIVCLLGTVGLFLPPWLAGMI
T2 sequence (P17787 26-502): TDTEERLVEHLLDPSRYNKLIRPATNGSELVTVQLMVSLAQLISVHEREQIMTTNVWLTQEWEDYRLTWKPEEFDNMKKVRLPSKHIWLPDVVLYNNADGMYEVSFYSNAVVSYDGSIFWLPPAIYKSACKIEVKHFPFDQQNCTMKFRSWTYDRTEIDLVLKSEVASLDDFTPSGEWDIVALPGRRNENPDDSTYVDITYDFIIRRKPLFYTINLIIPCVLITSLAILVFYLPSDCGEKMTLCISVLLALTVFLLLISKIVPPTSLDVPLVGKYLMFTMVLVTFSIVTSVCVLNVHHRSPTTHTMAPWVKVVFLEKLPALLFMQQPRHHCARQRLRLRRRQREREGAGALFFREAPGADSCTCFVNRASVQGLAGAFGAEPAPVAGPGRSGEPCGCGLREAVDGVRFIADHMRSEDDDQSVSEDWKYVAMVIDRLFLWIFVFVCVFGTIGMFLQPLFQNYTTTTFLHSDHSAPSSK
Experimental: (§1) FIGS. 4A and B show the response intensity curves of Xenopus oocytes stimulated by only […] Ach to α4β2 and α3β4 in the left panel, respectively.
(§2) FIGS. 4A and B show the response intensity curves of Xenopus oocytes stimulated by 10 μM ACh and […] LD486 to α4β2 and α3β4 in the right panel, respectively. Xenopus oocytes are pre-stimulated with 10 μM LD486 for 60 seconds.
(§3) Used as exogenous expression system, Xenopus oocytes are injected with different α subunits and β subunits at 1:1 ratio.

α3β4 receptors = molecular target: T3, α3β4 receptors (Homo sapiens, UniProt P30926+P32297); assay: Two-electrode voltage clamp in Xenopus oocytes, α3β4 receptor; format: cell-based; conditions: 10 μM LD486, pre-stimulated 60 seconds, 10 μM ACh
T3 construct: expressed in transfected cells; host or cells: Xenopus oocytes
T3 sequence (P32297 32-505): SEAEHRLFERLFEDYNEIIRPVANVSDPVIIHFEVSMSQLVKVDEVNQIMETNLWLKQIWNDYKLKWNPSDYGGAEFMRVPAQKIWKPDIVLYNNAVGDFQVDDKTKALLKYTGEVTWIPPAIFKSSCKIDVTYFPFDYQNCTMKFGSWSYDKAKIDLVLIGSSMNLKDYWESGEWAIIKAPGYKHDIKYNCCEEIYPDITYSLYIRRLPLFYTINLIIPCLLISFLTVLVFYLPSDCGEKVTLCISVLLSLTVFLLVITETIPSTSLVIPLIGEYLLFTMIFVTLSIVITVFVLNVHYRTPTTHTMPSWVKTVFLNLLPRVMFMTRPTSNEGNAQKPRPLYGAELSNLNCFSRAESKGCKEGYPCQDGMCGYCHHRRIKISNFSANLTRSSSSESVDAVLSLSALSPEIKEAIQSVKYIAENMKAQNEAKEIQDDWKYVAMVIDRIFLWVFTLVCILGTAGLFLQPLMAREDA
T3 sequence (P30926 22-498): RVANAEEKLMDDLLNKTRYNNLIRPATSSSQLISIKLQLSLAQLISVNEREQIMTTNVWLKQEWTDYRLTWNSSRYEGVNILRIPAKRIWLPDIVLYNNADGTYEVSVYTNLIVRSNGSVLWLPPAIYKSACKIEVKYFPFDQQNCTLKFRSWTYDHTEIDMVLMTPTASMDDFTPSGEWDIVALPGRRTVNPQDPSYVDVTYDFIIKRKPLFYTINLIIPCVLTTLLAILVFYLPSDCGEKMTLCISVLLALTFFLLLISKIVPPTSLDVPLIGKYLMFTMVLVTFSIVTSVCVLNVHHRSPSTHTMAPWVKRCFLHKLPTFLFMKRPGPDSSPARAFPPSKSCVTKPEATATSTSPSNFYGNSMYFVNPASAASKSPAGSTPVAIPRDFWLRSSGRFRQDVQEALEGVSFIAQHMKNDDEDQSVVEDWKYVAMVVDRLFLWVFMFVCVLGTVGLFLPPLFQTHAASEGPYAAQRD
Experimental: as §1, §2, §3

α7 nAChR [2] = molecular target: T4, α7 nAChR (Homo sapiens, UniProt P36544); assay: α7 nAChR positive allosteric modulator activity assay, voltage clamp in Xenopus oocytes with 100 μM ACh; format: cell-based; conditions: for activity at 10 µM: at 10 μM compound, current induced by 100 μM ACh, Xenopus oocytes expressing α7 nAChR, read-out: Max Mod (%, at 10 μM)
T4 construct: expressed in transfected cells; host or cells: Xenopus oocytes (cRNA injection)
T4 sequence (P36544 23-502): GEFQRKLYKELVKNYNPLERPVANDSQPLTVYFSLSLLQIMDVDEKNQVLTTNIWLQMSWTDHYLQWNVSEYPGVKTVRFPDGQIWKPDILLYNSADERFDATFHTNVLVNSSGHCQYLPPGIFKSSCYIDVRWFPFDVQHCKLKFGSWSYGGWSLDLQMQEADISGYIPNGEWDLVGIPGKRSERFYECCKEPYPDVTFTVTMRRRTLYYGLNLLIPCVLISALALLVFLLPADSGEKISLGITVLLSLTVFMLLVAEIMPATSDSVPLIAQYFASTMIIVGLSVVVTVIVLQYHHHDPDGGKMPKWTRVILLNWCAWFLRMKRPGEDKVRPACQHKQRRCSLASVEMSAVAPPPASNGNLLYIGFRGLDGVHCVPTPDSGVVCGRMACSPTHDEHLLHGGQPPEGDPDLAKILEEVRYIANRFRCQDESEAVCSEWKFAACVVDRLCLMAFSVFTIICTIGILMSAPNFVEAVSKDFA
Experimental: The experimental process was as follows:
(1) Xenopus oocytes were injected with cRNA encoding α7 nAChR in order to express α7 nAChR on the cell membrane successfully;
(2) 100 μM ACh alone was added, and the α7 nAChR characteristic current caused by it was recorded as a control;
(5) The oocytes were incubated for 1 min with 10 μM compound, then 10 µM compound and 100 μM ACh were added simultaneously and the current induced by ACh was recorded at this time;
(6) The differences between the two currents in terms of peak intensity and duration were compared, with the ratio of peak intensity of the two currents representing the adjustment effect (Enhance Rate), in order to determine whether the compound had PAM activity, if the activity was good, then the subsequent test was carried out;
(7) Concentration gradient was set and the effects of compounds at different concentrations on the α7 nAChR characteristic current induced by 100 μM ACh were evaluated. Several determinations were carried out at the same concentration, and the results were presented in the form of “mean±standard deviation”;
(8) The EC50 (median maximum effect concentration) values and Max mod (the current amplitude caused by the maximal degree of adjustable endogenous agonist acetylcholine) values of the compounds and other activity data were obtained by Hill equation Inormalized=Emax/(1+(EC50/C)nH).
The amplitude of the peak current is only normalized by the amplitude produced by 100 μM ACh and different concentrations of LD486. […] It can be seen from FIG. 3 that the Hill equation is used to fit the dose-response curve and calculate the kinetic parameters.

[3] = molecular target: T5, hERG (human ether-a-go-go related gene) channel (Homo sapiens, UniProt Q12809); assay: Automatic patch clamp Qplate-16 assay, hERG channel expressed on CHO cell lines; format: cell-based; conditions: CHO cells
T5 construct: expressed in transfected cells; host or cells: CHO (Chinese hamster ovary) cell lines
T5 sequence (Q12809 whole entry): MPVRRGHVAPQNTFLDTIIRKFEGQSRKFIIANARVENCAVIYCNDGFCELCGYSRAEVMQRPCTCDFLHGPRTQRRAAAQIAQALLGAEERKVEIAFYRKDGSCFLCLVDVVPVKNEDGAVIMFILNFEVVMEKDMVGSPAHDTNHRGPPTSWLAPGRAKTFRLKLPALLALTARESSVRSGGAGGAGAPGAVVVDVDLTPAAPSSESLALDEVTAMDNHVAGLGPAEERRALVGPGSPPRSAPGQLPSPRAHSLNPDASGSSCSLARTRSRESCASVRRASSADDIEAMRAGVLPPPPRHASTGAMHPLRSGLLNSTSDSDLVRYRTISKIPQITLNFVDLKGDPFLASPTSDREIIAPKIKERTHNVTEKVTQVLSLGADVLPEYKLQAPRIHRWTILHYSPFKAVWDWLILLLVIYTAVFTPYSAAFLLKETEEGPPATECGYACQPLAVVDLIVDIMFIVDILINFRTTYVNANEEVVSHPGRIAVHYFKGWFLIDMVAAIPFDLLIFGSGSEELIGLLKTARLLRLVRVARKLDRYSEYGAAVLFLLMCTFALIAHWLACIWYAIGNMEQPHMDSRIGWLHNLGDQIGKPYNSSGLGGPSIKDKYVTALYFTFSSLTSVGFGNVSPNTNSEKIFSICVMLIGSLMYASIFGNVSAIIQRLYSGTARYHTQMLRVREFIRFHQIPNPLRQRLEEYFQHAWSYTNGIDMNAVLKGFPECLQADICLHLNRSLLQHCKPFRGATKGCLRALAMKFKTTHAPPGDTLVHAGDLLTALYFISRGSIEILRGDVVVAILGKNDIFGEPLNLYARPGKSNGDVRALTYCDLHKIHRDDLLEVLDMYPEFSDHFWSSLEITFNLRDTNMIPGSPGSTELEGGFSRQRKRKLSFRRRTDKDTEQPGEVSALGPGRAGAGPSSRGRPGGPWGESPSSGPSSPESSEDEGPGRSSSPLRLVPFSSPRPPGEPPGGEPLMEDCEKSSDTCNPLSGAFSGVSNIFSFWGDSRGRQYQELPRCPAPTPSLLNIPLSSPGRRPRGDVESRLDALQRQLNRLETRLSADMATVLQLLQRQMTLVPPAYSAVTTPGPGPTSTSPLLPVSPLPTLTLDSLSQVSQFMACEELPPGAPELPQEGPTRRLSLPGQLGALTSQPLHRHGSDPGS
Source text: In the absence of LD486 or cisapride or in the presence of LD486 or cisapride at different concentrations, drug-related hERG potassium channel inhibition can lead to ventricular delayed repolarization (long QT interval syndrome), which may lead to a current intensity of fatal arrhythmia such as torsades de pointes, and even sudden death.

[4] = potentiation of current induced by 100 μM ACh, Hill equation fit

SMILES: O=C(N[C@H]1CN2CCC1CC2)c1ccc(Cl)cc1 [PNU-282987, reference compound]
Ki (α7 nAChR [1]; displacement of [3H]-MLA, rat brain cell membrane, FIG. 1): 34.1 ± 4.3 nM

SMILES: Cc1nc(Cl)cc(Nc2nc3ncn(-c4c(C)cccc4Cl)c(=O)c3s2)n1 [LD486, 2-((6-Chloro-2-methylpyrimidin-4-yl)amino)-6-(2-chloro-6-methylphenyl)thiazolo[4,5-d]pyrimidin-7(6H)-one]
effect on current of α4β2 receptors (α4β2 receptors): did not increase; also recorded: no significant effect | effect on current of α3β4 receptors (α3β4 receptors): did not increase; also recorded: no significant effect | maximal degree of adjustable endogenous agonist ACh current amplitude (α7 nAChR [2]; FIG. 3, Hill equation fit): about 3.2 times | Hill coefficient (α7 nAChR [2]; FIG. 3, n=6): 1.4±0.2 | Emax (α7 nAChR [2]; FIG. 3, normalized to 100 μM ACh, repeated 6 times): 320% | EC50 (α7 nAChR [2]; FIG. 3 concentration response curve, 100 μM ACh, n=6): 3.2 ± 0.3 µM | induction of α7 nAChR characteristic current by compound alone (α7 nAChR [2]; LD486 0.1-10 μM alone, without ACh, FIG. 2): does not induce | activity at 10 µM (α7 nAChR [2]): 320% | current amplitude induced by 100 μM ACh compared with the control group (α7 nAChR [2]; incubation 1 min, then same concentration of LD486 plus 100 μM ACh, FIG. 2): significantly increased | Ki (α7 nAChR [2]; summary statement, read-out: Ki value as an α7nAChR PAM): ~3 µM | effect on binding of [3H]-MLA to α7 nAChR (α7 nAChR [1]; concentration increased to 10 μM, hippocampus of rats): does not affect; also recorded: not reduced | inhibitory effect on the hERG channel [3]: no inhibitory effect; also recorded: slight inhibitory effect

SMILES: Cc1ccc(Nc2nc3ncn(-c4c(C)cccc4Cl)c(=O)c3s2)cc1 [JWX-A1029, 6-(2-Chloro-6-methylphenyl)-2-(p-tolylamino)thiazolo[4,5-d]pyrimidin-7(6H)-one]
EC50 (α7 nAChR [2]; [4]): 7.47 µM

Other lines, results leading:

activity at 10 µM (α7 nAChR [2]): 500% | EC50 (α7 nAChR [2]; [4]): 10 µM
SMILES: Cc1cccc(Cl)c1-n1cnc2nc(SCc3cccc(F)c3)sc2c1=O [LYH150310-3F, 6-(2-Chloro-6-methylphenyl)-2-((3-fluorobenzyl)thio)thiazolo[4,5-d]pyrimidin-7(6H)-one]

activity at 10 µM (α7 nAChR [2]): 110%
SMILES: Cc1ccc(Nc2nc3ncn(-c4c(C)cccc4F)c(=O)c3s2)cc1F [JWX-A-C0111, 6-(2-fluoro-6-methylphenyl)-2-((3-fluoro-4-methylphenyl)amino)thiazolo[4,5-d]pyrimidin-7(6H)-one]

EC50 (α7 nAChR [2]; [4]): 10 µM
SMILES: Cc1cccc(Cl)c1-n1cnc2nc(Sc3cccc(F)c3)sc2c1=O [LYH151215, 6-(2-Chloro-6-methylphenyl)-2-((3-fluorophenyl)thio)thiazolo[4,5-d]pyrimidin-7(6H)-one]
